Reference: patent US8664379B2, “Fused heterocyclic compounds as ion channel modulators” (Gilead Sciences, Inc., priority 2008, dated 2014)
“And” between values parts separate entries of the source, which are not always exact repeats. Equal values may be shown once.

Key:
hERG potassium channel = molecular target: T1, hERG potassium channel (Homo sapiens, UniProt Q12809); test: hERG screening assay (PatchXpress patch clamp); assay type: cell-based; details: hERG expressed in CHO cells, peak current at -50 mV; for hERG Patch Clamp hERG % blk 1 μm: 1 μM test compound; for hERG Patch Clamp hERG % blk 10 μm: 10 μM test compound
T1 construct: expressed in transfected cells
Method: Compounds were screened to test their activity in blocking the hERG potassium channel. The hERG channel was heterologously expressed in a CHO (Chinese Hamster Ovary) cell line. Cells were maintained with standard tissue culture procedures and stable channel expression was maintained with 500 μg/ml G418 in the culture medium. Cells were harvested for testing on the PatchXpress automated patch clamp with Accumax (Innovative Cell Technologies, San Diego, Calif.) to isolate single cells.
The following solutions were used for electrophysiological recordings. The external solution contained: 2 mM CaCl2; 2 mM MgCl2; 4 mM KCl; 150 mM NaCl; 10 mM Glucose; 10 mM HEPES (pH 7.4 with 1M NaOH, osmolarity). The internal solution contained: 140 mM KCl, 10 mM MgCl2, 6 mM EGTA, 5 mM HEPES, 5 mM ATP (pH adjusted to 7.25 with KOH).
hERG channels are activated when the voltage is stepped to +20 mV from the −80 mV holding potential. During a 5 second step at +20 mV, the channels activated and then largely inactivated, so the currents were relatively small. Upon returning to −50 mV from +20 mV, hERG currents transiently became much larger as inactivation was rapidly removed and then the channel closed. The first step to −50 mV for 300 ms was used as a baseline for measuring the peak amplitude during the step to −50 mV after channel activation. The peak current at −50 mV was measured both under control conditions and after addition of compound.
All compounds were prepared as 10 mM DMSO stocks in glass vials. Stock solutions were mixed by vigorous vortexing and sonication for about 2 minutes at room temperature. For testing, compounds were diluted in glass vials using an intermediate dilution step in pure DMSO and then further diluted to working concentrations in external solution. Dilutions were prepared no longer than 20 minutes before use.
After achieving the whole-cell configuration, cells were monitored for 90 seconds to assess stability and washed with external solution for 66 seconds. The voltage protocol described above was then applied to the cells every 12 seconds and throughout the whole procedure. Only cells with stable recording parameters and meeting specified health criteria were allowed to enter the compound addition procedure.
External solution containing 0.1% DMSO (vehicle) was applied to the cells first to establish the control peak current amplitude. After allowing the current to stabilize for 3 to 5 minutes, 1 μM and then 10 μM test compounds were applied. Each compound concentration was added 4 times and cells were kept in test solution until the effect of the compound reached steady state or for a maximum of 12 minutes. After addition of test compound, a positive control (1 μM Cisapride) was added—it must block >95% of the current for the experiment to be considered valid. Washout in the external solution compartment was performed until the recovery of the current reached steady state. Data were analyzed using DataXpress, Clampfit (Molecular Devices, Inc., Sunnyvale) and Origin 7 (Originlab Corp.)

[1] = molecular target: wild-type human cardiac sodium channel, hNav1.5 (late sodium current) (Homo sapiens, UniProt Q14524); test: Late INa screening assay (PatchXpress whole cell patch clamp); assay type: cell-based; details: HEK293, 10 μM test compound; HEK293 cells expressing hNav1.5; late INa generated with 10 μM Tefluthrin (some experiments 50 nM ATX II); read-out: Late INa % blk (10 μM test cmpd)
Method: The late sodium current (Late INa) and peak sodium current (Peak INa) assays were performed on an automated electrophysiology platform, PatchXpress 7000A (MDS Analytical Technologies, Sunnyvale, Calif.), which uses the whole cell patch clamp technique to measure currents through the cell membrane of up to 16 cells at a time. The assay used an HEK293 (human embryonic kidney) cell line heterologously expressing the wild-type human cardiac sodium channel, hNav1.5, purchased from Millipore (Billerica, Mass.). No beta subunits were coexpressed with the Na channel alpha subunit. Cells were maintained with standard tissue culture procedures and stable channel expression was maintained with 400 μg/ml Geneticin in the culture medium. Cells isolated for use on PatchXpress were incubated for 5 minutes in Versene 1× and then for 2 minutes in 0.0125% Trypsin-EDTA (both at 37° C.) to ensure that 80-90% of the cells are single and not part of a cell cluster. Experiments were carried out at 24-27° C.
For both the Late INa and Peak INa assays, series resistance compensation was set to 50% and whole-cell compensation was performed automatically. Currents were low-pass filtered at 10 kHz and digitized at 31.25 kHz. Currents through open sodium channels were automatically recorded and stored in the DataXpress2 database (MDS Analytical Technologies, Sunnyvale, Calif.). Analysis was performed using DataXpress2 analysis software and data are compiled in Excel.
Compound stocks were routinely made in glass vials to 10 mM in dimethyl sulfoxide (DMSO). In some cases, when compounds were not soluble in DMSO, they were made in 100% ethanol. Stocks were sonicated as necessary. The extracellular solution for screening Late INa was composed of: 140 mM NaCl, 4 mM KCl, 1.8 mM CaCl2, 0.75 mM MgCl2, and 5 mM HEPES with pH adjusted to 7.4 using NaOH. The extracellular solution for screening Peak INa was composed of: 20 mM NaCl, 120 mM N-methyl-D glucamine, 4 mM KCl, 1.8 mM CaCl2, 0.75 mM MgCl2, and 5 mM HEPES with pH adjusted to 7.4 using HCl. The intracellular solution used to perfuse the inside of the cells for both the Late INa and Peak INa assays contains: 120 mM CsF, 20 mM CsCl, 5 mM EGTA, 5 mM HEPES and pH adjusted to 7.4 with CsOH. Compounds were diluted in extracellular solution to 10 μM in glass vials and then transferred to glass well plates before robotic addition to the cells. The 0Na extracellular solution used at the end of each experiment for the Late INa and Peak INa assays to measure baseline current contained: 140 mM N-methyl-D-glucamine; 4 mM KCl; 1.8 mM CaCl2; 0.75 mM MgCl2; 5 mM HEPES and pH was adjusted to 7.4 with HCl.
For the Late INa assay, sodium channels were activated every 10 seconds (0.1 Hz) by depolarizing the cell membrane to −20 mV for 250 milliseconds (ms) from a holding potential of −120 mV. In response to a −20 mV voltage step, typical Nav1.5 sodium currents activated rapidly to a peak negative current and then inactivated nearly completely within 3-4 ms.
All compounds were tested to determine their activity in blocking the late sodium current. Late INa current is generated by adding 10 μM Tefluthrin (pyrethroid) to the extracellular solution while recording Na currents. For some experiments, 50 nM ATX II (sea anemone toxin), another late INa activator, was used to generate the late component. Both activators generate late components that are large enough that block of the late component by compounds can be measured easily. For the purposes of the screening, late INa is defined as the mean current between 225 ms and 250 ms after stepping to −20 mV to activate Na channels. After establishing the whole cell recording configuration, late INa activators were added to each well 4 times over a 16-17 minute period so that the late component of the Na current reached a stable value. Compounds were then added (typically at 10 μM), in the presence of late INa activator, with 3 additions over the course of 7 or 8 minutes. […]

T1 sequence (Q12809 whole entry): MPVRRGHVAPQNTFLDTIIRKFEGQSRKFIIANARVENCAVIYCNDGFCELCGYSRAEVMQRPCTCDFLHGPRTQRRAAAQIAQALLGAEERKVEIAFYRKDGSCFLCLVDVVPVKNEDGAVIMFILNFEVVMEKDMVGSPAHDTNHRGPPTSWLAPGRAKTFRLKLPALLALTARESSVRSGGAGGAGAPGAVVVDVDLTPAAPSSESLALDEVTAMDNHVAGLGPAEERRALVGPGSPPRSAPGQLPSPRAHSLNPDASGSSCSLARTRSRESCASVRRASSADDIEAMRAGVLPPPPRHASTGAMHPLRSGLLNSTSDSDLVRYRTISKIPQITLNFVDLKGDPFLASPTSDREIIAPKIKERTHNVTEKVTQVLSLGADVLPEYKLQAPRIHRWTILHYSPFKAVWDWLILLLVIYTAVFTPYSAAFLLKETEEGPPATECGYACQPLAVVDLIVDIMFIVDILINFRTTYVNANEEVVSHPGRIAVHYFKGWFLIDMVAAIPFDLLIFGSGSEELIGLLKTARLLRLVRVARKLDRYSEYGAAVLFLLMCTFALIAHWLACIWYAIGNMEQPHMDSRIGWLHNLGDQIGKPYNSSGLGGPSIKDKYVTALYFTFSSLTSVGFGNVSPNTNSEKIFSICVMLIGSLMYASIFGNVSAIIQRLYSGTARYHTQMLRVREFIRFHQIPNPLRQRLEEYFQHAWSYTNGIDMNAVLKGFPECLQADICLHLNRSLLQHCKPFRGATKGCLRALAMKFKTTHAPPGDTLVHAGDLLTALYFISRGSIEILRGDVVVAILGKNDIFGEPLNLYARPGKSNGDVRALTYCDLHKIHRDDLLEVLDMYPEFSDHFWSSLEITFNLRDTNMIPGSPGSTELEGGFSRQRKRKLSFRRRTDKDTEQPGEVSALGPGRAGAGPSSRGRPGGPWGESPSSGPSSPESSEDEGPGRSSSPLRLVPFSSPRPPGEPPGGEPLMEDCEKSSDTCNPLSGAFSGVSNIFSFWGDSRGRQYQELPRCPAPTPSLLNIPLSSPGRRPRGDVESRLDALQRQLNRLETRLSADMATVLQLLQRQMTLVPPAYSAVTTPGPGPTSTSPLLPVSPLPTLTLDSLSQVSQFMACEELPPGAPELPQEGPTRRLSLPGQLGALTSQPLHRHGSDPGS
wild-type human cardiac sodium channel, hNav1.5 (late sodium current), sequence (Q14524 whole entry): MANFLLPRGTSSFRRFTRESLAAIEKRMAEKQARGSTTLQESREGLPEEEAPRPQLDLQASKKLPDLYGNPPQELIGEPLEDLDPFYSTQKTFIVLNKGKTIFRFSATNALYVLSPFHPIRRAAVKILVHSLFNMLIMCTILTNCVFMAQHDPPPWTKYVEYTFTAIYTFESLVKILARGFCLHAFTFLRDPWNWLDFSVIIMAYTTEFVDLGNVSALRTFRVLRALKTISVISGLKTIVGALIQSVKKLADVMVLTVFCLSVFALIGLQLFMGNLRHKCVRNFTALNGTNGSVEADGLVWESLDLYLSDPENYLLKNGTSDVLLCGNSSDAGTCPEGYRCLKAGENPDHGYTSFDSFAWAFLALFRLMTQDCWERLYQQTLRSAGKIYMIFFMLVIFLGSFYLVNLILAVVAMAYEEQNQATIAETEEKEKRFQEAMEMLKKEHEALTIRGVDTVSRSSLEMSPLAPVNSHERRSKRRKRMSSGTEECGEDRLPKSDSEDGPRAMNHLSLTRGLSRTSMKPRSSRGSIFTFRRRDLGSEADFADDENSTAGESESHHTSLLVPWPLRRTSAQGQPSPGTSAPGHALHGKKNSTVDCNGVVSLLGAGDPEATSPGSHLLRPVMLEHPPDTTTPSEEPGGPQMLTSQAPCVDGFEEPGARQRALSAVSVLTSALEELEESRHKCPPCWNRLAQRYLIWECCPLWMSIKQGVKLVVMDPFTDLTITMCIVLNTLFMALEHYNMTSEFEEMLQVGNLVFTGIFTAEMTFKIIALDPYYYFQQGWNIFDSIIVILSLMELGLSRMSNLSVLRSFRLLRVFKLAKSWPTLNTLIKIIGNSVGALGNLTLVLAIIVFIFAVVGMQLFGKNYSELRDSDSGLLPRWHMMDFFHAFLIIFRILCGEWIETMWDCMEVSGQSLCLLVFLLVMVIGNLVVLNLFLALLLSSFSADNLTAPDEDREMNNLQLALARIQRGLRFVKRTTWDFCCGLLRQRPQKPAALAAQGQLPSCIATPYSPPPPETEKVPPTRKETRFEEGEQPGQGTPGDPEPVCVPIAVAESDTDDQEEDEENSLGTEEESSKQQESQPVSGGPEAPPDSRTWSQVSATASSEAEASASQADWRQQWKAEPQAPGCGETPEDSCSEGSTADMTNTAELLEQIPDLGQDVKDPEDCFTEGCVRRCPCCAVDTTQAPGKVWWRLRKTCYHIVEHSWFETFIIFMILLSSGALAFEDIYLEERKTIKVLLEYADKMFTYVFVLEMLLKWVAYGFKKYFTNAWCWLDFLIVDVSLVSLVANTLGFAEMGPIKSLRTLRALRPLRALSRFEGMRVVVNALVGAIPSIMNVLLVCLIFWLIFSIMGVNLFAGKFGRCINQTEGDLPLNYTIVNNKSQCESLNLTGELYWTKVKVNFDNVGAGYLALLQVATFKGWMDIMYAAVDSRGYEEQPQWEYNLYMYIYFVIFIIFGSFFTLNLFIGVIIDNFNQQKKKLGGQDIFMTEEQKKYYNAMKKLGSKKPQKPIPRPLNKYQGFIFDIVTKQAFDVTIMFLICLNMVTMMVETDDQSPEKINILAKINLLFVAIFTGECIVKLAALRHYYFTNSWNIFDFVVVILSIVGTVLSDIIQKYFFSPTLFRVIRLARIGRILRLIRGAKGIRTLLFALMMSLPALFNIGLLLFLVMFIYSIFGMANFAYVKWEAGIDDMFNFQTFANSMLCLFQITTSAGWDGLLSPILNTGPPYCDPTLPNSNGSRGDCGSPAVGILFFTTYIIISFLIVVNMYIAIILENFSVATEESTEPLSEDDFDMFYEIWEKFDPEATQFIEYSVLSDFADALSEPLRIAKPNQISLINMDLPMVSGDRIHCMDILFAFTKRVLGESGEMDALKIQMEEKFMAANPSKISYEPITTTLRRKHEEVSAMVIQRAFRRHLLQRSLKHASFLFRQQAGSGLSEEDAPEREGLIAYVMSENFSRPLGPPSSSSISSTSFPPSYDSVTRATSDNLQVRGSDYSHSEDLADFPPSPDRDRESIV

Compound | hERG Patch Clamp hERG % blk 1 μm (hERG potassium channel) | hERG Patch Clamp hERG % blk 10 μm (hERG potassium channel) | inhibition at 10 µM [1] [%]
O=C1CCc2cc(-c3ccc(C(F)(F)F)cc3)ccc2N1CCO [Compound 14, 1-(2-hydroxyethyl)-6-[4-(trifluoromethyl)phenyl]-3,4-dihydroquinolin-2(1H)-one] | 10% | 28% | 29
O=C1CCc2cc(-c3ccc(F)c(F)c3)ccc2N1CCO [Compound 15, 6-(3,4-difluorophenyl)-1-(2-hydroxyethyl)-3,4-dihydroquinolin-2(1H)-one] | 13% | 59% | 36
CN1C(=O)CCc2cc(-c3cccc(F)c3)ccc21 [Compound 21, 6-(3-fluorophenyl)-1-methyl-3,4-dihydroquinolin-2(1H)-one] | 11% | 36% | 65
CCOC(=O)CN1C(=O)CCc2cc(-c3ccc(OC(F)(F)F)cc3)ccc21 [Compound 25, ethyl {2-oxo-6-[4-(trifluoromethoxy)phenyl]-3,4-dihydroquinolin-1(2H)-yl}acetate] | 26% | 32% | 20
O=C1CCc2cc(-c3ccc(F)cc3F)ccc2N1Cc1csc(-c2ccc(Cl)cc2)n1 [Compound 26, 1-{[2-(4-chlorophenyl)-1,3-thiazol-4-yl]methyl}-6-(2,4-difluorophenyl)-3,4-dihydroquinolin-2(1H)-one] | 10% | 10% | 20
COCCN1C(=O)CCc2cc(-c3ccc(F)cc3F)ccc21 [Compound 27, 6-(2,4-difluorophenyl)-1-(2-methoxyethyl)-3,4-dihydroquinolin-2(1H)-one] | 12% | 47% | 52
CC(C)(C)OC(=O)CN1C(=O)CCc2cc(-c3ccc(C(F)(F)F)cc3)ccc21 [Compound 29, tert-butyl {2-oxo-6-[4-(trifluoromethyl)phenyl]-3,4-dihydroquinolin-1(2H)-yl}acetate] | 11% | 97% | 69
O=C1CCc2cc(-c3ccc(OC(F)(F)F)cc3)ccc2N1 [Compound 34, 6-[4-(trifluoromethoxy)phenyl]-3,4-dihydroquinolin-2(1H)-one] | 13% | 37% | 60
Cc1cc(CN2C(=O)CCc3cc(-c4ccc(OC(F)(F)F)cc4)ccc32)no1 [Compound 39, 1-[(5-methylisoxazol-3-yl)methyl]-6-[4-(trifluoromethoxy)phenyl]-3,4-dihydroquinolin-2(1H)-one] | 12% | 96% | 60
COCCN1C(=O)CCc2cc(-c3ccc(C(F)(F)F)cc3)ccc21 [Compound 49, 1-(2-methoxyethyl)-6-[4-(trifluoromethyl)phenyl]-3,4-dihydroquinolin-2(1H)-one] | 10% | 42% | 60
O=C(O)CN1C(=O)CCc2cc(-c3ccc(Cl)c(F)c3)ccc21 [Compound 58, [6-(4-chloro-3-fluorophenyl)-2-oxo-3,4-dihydroquinolin-1(2H)-yl]acetic acid] | 10% | 10% | 13
O=C(O)CN1C(=O)CCc2cc(-c3cccc(C(F)(F)F)c3)ccc21 [Compound 60, 2-(2-oxo-6-(3-(trifluoromethyl)phenyl)-3,4-dihydroquinolin-1(2H)-yl)acetic acid] | 10% | 10% | 25
O=C(O)CN1C(=O)CCc2cc(-c3ccc(Cl)c(Cl)c3)ccc21 [Compound 69, [6-(3,4-dichlorophenyl)-2-oxo-3,4-dihydroquinolin-1(2H)-yl]acetic acid] | 10% | 10% | 16
O=C(O)CN1C(=O)CCc2cc(-c3ccc(Oc4ccccc4)cc3)ccc21 [Compound 70, [2-oxo-6-(4-phenoxyphenyl)-3,4-dihydroquinolin-1(2H)-yl]acetic acid] | 10% | 10% | 17
CC(O)CN1C(=O)CCc2cc(-c3ccc(OC(F)(F)F)cc3)ccc21 (stereo not drawn) [Compound 89, 1-(2-hydroxypropyl)-6-[4-(trifluoromethoxy)phenyl]-3,4-dihydroquinolin-2(1H)-one] | 24% and 16% | 67% and 72% | 42
